Experiments:
[1] = φn = volume fraction of the nth substance listed; details: Liquid, φ1 = 0.75
[2] = Liquid

OCCO [1,2-ethanediol] + O
[1]
Details	specific volume [m3/kg]
273.15 K, 100 kPa, Vibrating tube method	0.0009024
274.15 K, 100 kPa, Vibrating tube method	0.0009029
275.15 K, 100 kPa, Vibrating tube method	0.0009035
276.15 K, 100 kPa, Vibrating tube method	0.000904
277.15 K, 100 kPa, Vibrating tube method	0.0009045
278.15 K, 100 kPa, Vibrating tube method	0.0009051
279.15 K, 100 kPa, Vibrating tube method	0.0009056
280.15 K, 100 kPa, Vibrating tube method	0.0009061
281.15 K, 100 kPa, Vibrating tube method	0.0009067
282.15 K, 100 kPa, Vibrating tube method	0.0009072
283.16 K, 100 kPa, Vibrating tube method	0.0009078
284.16 K, 100 kPa, Vibrating tube method	0.0009083
285.16 K, 100 kPa, Vibrating tube method	0.0009088
286.16 K, 100 kPa, Vibrating tube method	0.0009094
287.16 K, 100 kPa, Vibrating tube method	0.0009099
288.09 K, 100 kPa, Vibrating tube method	0.0009104
288.09 K, 148600 kPa, Bellows volumetry	0.0008753
288.1 K, 98200 kPa, Bellows volumetry	0.0008859
288.11 K, 100 kPa, Vibrating tube method	0.0009104
288.11 K, 49700 kPa, Bellows volumetry	0.0008965
288.12 K, 98200 kPa, Bellows volumetry	0.0008844
288.13 K, 100 kPa, Vibrating tube method	0.0009105
288.13 K, 49400 kPa, Bellows volumetry	0.0008974
288.13 K, 349300 kPa, Bellows volumetry	0.0008385
288.14 K, 149800 kPa, Bellows volumetry	0.0008734
288.14 K, 199000 kPa, Bellows volumetry	0.0008635
288.15 K, 199100 kPa, Bellows volumetry	0.0008654
288.16 K, 100 kPa, Vibrating tube method	0.0009105
288.16 K, 248700 kPa, Bellows volumetry	0.0008558
288.17 K, 299900 kPa, Bellows volumetry	0.0008461
288.19 K, 250600 kPa, Bellows volumetry	0.0008544
288.29 K, 299600 kPa, Bellows volumetry	0.0008463
288.31 K, 199200 kPa, Bellows volumetry	0.0008639
288.31 K, 350200 kPa, Bellows volumetry	0.0008386
288.32 K, 251000 kPa, Bellows volumetry	0.0008545
288.33 K, 49300 kPa, Bellows volumetry	0.0008968
288.33 K, 149300 kPa, Bellows volumetry	0.0008737
288.33 K, 300300 kPa, Bellows volumetry	0.0008464
288.33 K, 348300 kPa, Bellows volumetry	0.0008391
288.36 K, 100900 kPa, Bellows volumetry	0.0008842
289.16 K, 100 kPa, Vibrating tube method	0.000911
290.16 K, 100 kPa, Vibrating tube method	0.0009116
291.16 K, 100 kPa, Vibrating tube method	0.0009121
292.15 K, 100 kPa, Vibrating tube method	0.0009127
293.15 K, 100 kPa, Vibrating tube method	0.0009132
294.15 K, 100 kPa, Vibrating tube method	0.0009138
295.16 K, 100 kPa, Vibrating tube method	0.0009143
296.16 K, 100 kPa, Vibrating tube method	0.0009149
297.15 K, 100 kPa, Vibrating tube method	0.0009155
298.15 K, 100 kPa, Vibrating tube method	0.000916
299.15 K, 100 kPa, Vibrating tube method	0.0009166
300.16 K, 100 kPa, Vibrating tube method	0.0009172
301.16 K, 100 kPa, Vibrating tube method	0.0009177
302.16 K, 100 kPa, Vibrating tube method	0.0009183
303.16 K, 100 kPa, Vibrating tube method	0.0009189
304.16 K, 100 kPa, Vibrating tube method	0.0009195
305.16 K, 100 kPa, Vibrating tube method	0.00092
306.16 K, 100 kPa, Vibrating tube method	0.0009206
307.15 K, 100 kPa, Vibrating tube method	0.0009212
308.15 K, 100 kPa, Vibrating tube method	0.0009218
309.15 K, 100 kPa, Vibrating tube method	0.0009223
310.15 K, 100 kPa, Vibrating tube method	0.0009229
311.15 K, 100 kPa, Vibrating tube method	0.0009235
312.15 K, 100 kPa, Vibrating tube method	0.0009241
313.15 K, 100 kPa, Vibrating tube method	0.0009247

OCCO [1,2-ethanediol]
[2]
Details	specific volume [m3/kg]
273.15 K, 100 kPa, Vibrating tube method	0.0008871
274.14 K, 100 kPa, Vibrating tube method	0.0008876
275.14 K, 100 kPa, Vibrating tube method	0.0008882
276.15 K, 100 kPa, Vibrating tube method	0.0008887
277.15 K, 100 kPa, Vibrating tube method	0.0008893
278.15 K, 100 kPa, Vibrating tube method	0.0008898
279.15 K, 100 kPa, Vibrating tube method	0.0008904
280.15 K, 100 kPa, Vibrating tube method	0.0008909
281.15 K, 100 kPa, Vibrating tube method	0.0008915
282.15 K, 100 kPa, Vibrating tube method	0.000892
283.15 K, 100 kPa, Vibrating tube method	0.0008926
284.15 K, 100 kPa, Vibrating tube method	0.0008931
285.15 K, 100 kPa, Vibrating tube method	0.0008937
286.15 K, 100 kPa, Vibrating tube method	0.0008942
287.15 K, 100 kPa, Vibrating tube method	0.0008948
288.09 K, 99800 kPa, Bellows volumetry	0.0008687
288.12 K, 348700 kPa, Bellows volumetry	0.0008241
288.15 K, 100 kPa, Vibrating tube method	0.0008954
288.15 K, 299700 kPa, Bellows volumetry	0.0008313
288.15 K, 349400 kPa, Bellows volumetry	0.0008238
288.16 K, 100 kPa, Vibrating tube method	0.0008954
288.17 K, 150000 kPa, Bellows volumetry	0.0008579
288.17 K, 248800 kPa, Bellows volumetry	0.0008395
288.17 K, 298500 kPa, Bellows volumetry	0.0008314
288.17 K, 350400 kPa, Bellows volumetry	0.0008236
288.18 K, 48900 kPa, Bellows volumetry	0.0008815
288.18 K, 99800 kPa, Bellows volumetry	0.0008684
288.18 K, 149400 kPa, Bellows volumetry	0.0008577
288.18 K, 198100 kPa, Bellows volumetry	0.0008485
288.18 K, 299200 kPa, Bellows volumetry	0.0008312
288.19 K, 49200 kPa, Bellows volumetry	0.0008811
288.19 K, 249300 kPa, Bellows volumetry	0.0008392
288.2 K, 248600 kPa, Bellows volumetry	0.0008396
288.21 K, 100 kPa, Vibrating tube method	0.0008954
288.21 K, 49000 kPa, Bellows volumetry	0.0008815
288.21 K, 199700 kPa, Bellows volumetry	0.0008479
288.22 K, 100 kPa, Vibrating tube method	0.0008954
288.23 K, 149400 kPa, Bellows volumetry	0.000858
288.24 K, 99600 kPa, Bellows volumetry	0.0008688
288.24 K, 199700 kPa, Bellows volumetry	0.0008482
289.15 K, 100 kPa, Vibrating tube method	0.0008959
290.15 K, 100 kPa, Vibrating tube method	0.0008965
291.15 K, 100 kPa, Vibrating tube method	0.000897
292.15 K, 100 kPa, Vibrating tube method	0.0008976
293.15 K, 100 kPa, Vibrating tube method	0.0008982
294.15 K, 100 kPa, Vibrating tube method	0.0008987
295.15 K, 100 kPa, Vibrating tube method	0.0008993
296.15 K, 100 kPa, Vibrating tube method	0.0008998
297.15 K, 100 kPa, Vibrating tube method	0.0009004
298.16 K, 100 kPa, Vibrating tube method	0.000901
299.16 K, 100 kPa, Vibrating tube method	0.0009016
300.16 K, 100 kPa, Vibrating tube method	0.0009021
301.16 K, 100 kPa, Vibrating tube method	0.0009027
302.16 K, 100 kPa, Vibrating tube method	0.0009033
303.15 K, 100 kPa, Vibrating tube method	0.0009038
304.16 K, 100 kPa, Vibrating tube method	0.0009044
305.15 K, 100 kPa, Vibrating tube method	0.000905
306.15 K, 100 kPa, Vibrating tube method	0.0009056
307.15 K, 100 kPa, Vibrating tube method	0.0009061
308.15 K, 100 kPa, Vibrating tube method	0.0009067
309.15 K, 100 kPa, Vibrating tube method	0.0009073
310.15 K, 100 kPa, Vibrating tube method	0.0009079
311.15 K, 100 kPa, Vibrating tube method	0.0009085
312.15 K, 100 kPa, Vibrating tube method	0.0009091
313.15 K, 100 kPa, Vibrating tube method	0.0009097

— the NIST ThermoML archive (doi:10.1021/je9010568)
